# Laboratory results from publication PMC9921896 (Molecules, 2023).
# Assay: Metabolite identification (MetID) in hepatocytes by LC-MS/MS
# Type: in vitro ADME, human
# Conditions: 80 min incubation, HR LC-MS/MS, metabolite M1, parent ion m/z 551 (375 + 176)
# From the text: However, on the contrary, these metabolites can also be formed with higher or equivalent toxicity when compared to the parent ligand. Therefore, to gain such an understanding of metabolite toxicity, 223-2 TbB ligand was shortlisted for metabolite identification (MetID) studies as it was the least prominent CYP inhibitor among the three TbB ligands studied for CYP inhibition, as discussed in earlier sections. The metabolites’ detection and identification were accomplished by utilizing the high-resolution LC-MS/MS (HR LC-MS/MS) technique and the obtained fragmentation pattern was subsequently analyzed to propose putative structures as discussed in the following paragraph. MetID studies was initiated first for the parent 223-2 ligand by HR LC-MS/MS as its fragmentation understanding could act as a guide to potentially identify the metabolites formed after incubation with hepatocytes. Since the 223-2 TbB ligand contain N and O atoms, it could be easily protonated and it was sensitive in positive ionization mode. Consequently, it was studied using the positive fragmentation pattern by ESI-MS ^n .
# To understand the fragmentation pattern of the parent compound, EPI spectrum was analyzed. […] Next, TbB ligand 223-2 was incubated (80 min) with hepatocytes and a new metabolite (M1) could be detected when compared with the control (0 min). […]
compound,measurement,value
COc1cc(-c2nnn(-c3cc(OC)c(O)c(OC)c3)n2)cc(OC)c1O [223-2],metabolite detected after incubation with hepatocytes,formation of glucuronide
